Structures are written as SMILES.

One data set has as its system MDA-MB-435s cells (human melanoma cells). Briefly: MDA-MB-435s cell proliferation inhibitory assay (CellTiter-Glo). In kind it is cell-based. The following applies: Homo sapiens, MDA-MB-435S, 72 h, read-out: Proliferation inhibition IC50. The method, then:
(§1) • 1). […] Resuspend an appropriate amount of cell suspension to 3000 cells/100 μL according to the count, mixed well and then put the corresponding number of cells into a 96-well plate by pipette. • 3). Each hole of the edge was sealed with 100 μL DPBS and put into an incubator for culture. • 4). Day 1 drug addition: Prepare the storage solution of the compound to be tested 1 hour in advance. 24 h after plating, the culture medium was gradiently diluted to a concentration twice the final concentration of each group. Take out the plated cells from the incubator and add 100 μL of the corresponding 2-fold concentration medium to each well by pipette. • 5). Day 1 detected: Take out an appropriate amount of CTG 1 h in advance and the plate was allowed to equilibrate at room temperature for 30 min. 100 μL of CTG was added to each well and shaken for 5 mins, and then standed in the dark for 5 mins, the luminescence value was detected by ELISA. • 6). Day 4 detection: Take an appropriate amount of CTG 1 h in advance and rewarm it at room temperature in the dark. At the same time, take out the plate to be tested from the incubator and leave it to equilibrate at room temperature for 30 minutes; 72 h after adding the drug, 100 μL of culture medium was sucked out with pipette carefully from each cell well, and 100 μL of CTG was added. The mixture was shaken for 5 min, and after equilibration in the dark for 5 min, the luminescence value was detected with ELISA. • 7). Analyze data and write detailed experimental records.
Collect data and convert it into survival rate: Inhibition rate (%)=(100−(OD value of compound−OD value on the first day)/(OD value of control well-OD value on the first day))×100%
(§2) Input the compound into graphpad prism to obtain the corresponding IC50 value.
`CC[C@@]1(O)C(=O)OCc2c1cc1n(c2=O)Cc2c-1nc1cc(F)c(C)c3c1c2[C@@H](N)CC3` [Compound B, Exatecan, reference compound]: the IC50 came out at 2.52 nM.

As for `CC[C@@]1(O)C(=O)OCc2c1cc1n(c2=O)Cc2c-1nc1cc(F)c(C)c3c1c2[C@@H](NC(=O)CO)CC3` [Dxd, reference compound], the IC50 was found to be 5.12 nM.

For the compound `CC[C@@]1(O)C(=O)OCc2c1cc1n(c2=O)Cc2c-1nc1cc(F)c(C)cc1c2[C@@H](C)N` [Example 1], the IC50 turned out to be 0.75 nM.

As for `CC[C@@]1(O)C(=O)OCc2c1cc1n(c2=O)Cc2c-1nc1cc(F)c(C)cc1c2CO` [Example 12b], the IC50 was determined as 3.2 nM.

For the compound `CC[C@@]1(O)C(=O)OCc2c1cc1n(c2=O)Cc2c-1nc1cc(F)c(C)cc1c2[C@H](C)O` [Example 12c], the IC50 came out at 0.7 nM.

For the compound `CC[C@@]1(O)C(=O)OCc2c1cc1n(c2=O)Cc2c-1nc1cc(F)c(C)cc1c2[C@@H](C)NC(=O)CO` [Example 13b], the IC50 was found to be 3.9 nM.

Take `CC[C@@]1(O)C(=O)OCc2c1cc1n(c2=O)Cc2c-1nc1cc(F)c(C)cc1c2[C@H](C)N1CCNCC1` [Example 41a]: the IC50 came out at 5.12 nM.

The data set is the same for the next values; noted with them: Homo sapiens, MDA-MB-435S, read-out: MDA-MB-435s Proliferation inhibition IC50.
With `CC[C@@]1(O)C(=O)OCc2c1cc1n(c2=O)Cc2c-1nc1cc(F)c(C)cc1c2[C@@H](C)N` [Example 1], the IC50 is 0.75 nM.

With `CC[C@@]1(O)C(=O)OCc2c1cc1n(c2=O)Cc2c-1nc1cc(F)c(C)cc1c2CO` [Example 12b], the IC50 turned out to be 3.2 nM.

Test system in another data set: not listed separately
The data set can be described thus: Caco-2 cell membrane permeability assay. The note with it: human, Caco-2.
Method: (§3) Day 0 plated: After digesting the target cells in the logarithmic growth phase, make a single cell suspension and count. • 2). Took out the corresponding number of transwell chambers and placed them in a 24-well plate, added 200 μL PBS to the upper chamber, incubated for 10 mins, and removed the PBS from the upper chamber by pipette. • 3). According to the count, took an appropriate amount of cell suspension and resuspended it to 5000 cells/200 μL, mixed well and added it to the upper chamber of the transwell, and added 600 μL of complete culture medium to the lower chamber. • 4). medium exchanged on DAY1: The upper chamber and the lower chamber were exchanged with complete culture medium containing 0.1 mg/mL ascorbic acid for 9 days continuously, and the resistance value of membrane expansion was measured. […] Collected the liquid in the upper chamber and the lower chamber for detection. • 7). Calculated Papp according to the formula “Papp=dQ/(dt×A×C0)”. dQ/dt was the transport amount of drugs per unit time, which was the slope of the linear regression of cumulative drug release amount Q versus time t. A was the bottom area of the Transwell orifice plate membrane, and the bottom area was 0.33 cm^2 of 24-well plate in this experiment. Co was the initial concentration of drugs in the upper chamber (μg mL-1).
Regarding `CC[C@@]1(O)C(=O)OCc2c1cc1n(c2=O)Cc2c-1nc1cc(F)c(C)c3c1c2[C@@H](N)CC3` [Compound B, Exatecan, reference compound], the Papp A→B at 180 min, 100 μg/mL worked out at 68.6 ×10⁻⁶ cm/s.

With `CC[C@@]1(O)C(=O)OCc2c1cc1n(c2=O)Cc2c-1nc1cc(F)c(C)c3c1c2[C@@H](NC(=O)CO)CC3` [Dxd, reference compound], the Papp A→B at 180 min, 100 μg/mL stood at 42 ×10⁻⁶ cm/s.

Another data set deals with MDA-MB-231 cells (human breast cancer cells). The data set can be described thus: MDA-MB-231 cell proliferation inhibitory assay (CellTiter-Glo). The data set is classed as cell-based. The following applies: Homo sapiens, MDA-MB-231, 72 h, read-out: Proliferation inhibition IC50. The method, then:
as §1, §2
With `CC[C@@]1(O)C(=O)OCc2c1cc1n(c2=O)Cc2c-1nc1cc(F)c(C)c3c1c2[C@@H](N)CC3` [Compound B, Exatecan, reference compound], the IC50 amounted to 30.9 nM.

Turning to `CC[C@@]1(O)C(=O)OCc2c1cc1n(c2=O)Cc2c-1nc1cc(F)c(C)c3c1c2[C@@H](NC(=O)CO)CC3` [Dxd, reference compound], the IC50 amounted to 101 nM.

In the case of `CC[C@@]1(O)C(=O)OCc2c1cc1n(c2=O)Cc2c-1nc1cc(F)c(C)cc1c2[C@@H](C)N` [Example 1], the IC50 is 8.2 nM.

`CC[C@@]1(O)C(=O)OCc2c1cc1n(c2=O)Cc2c-1nc1cc(F)c(C)cc1c2CO` [Example 12b]: the IC50 came to 20.2 nM.

With `CC[C@@]1(O)C(=O)OCc2c1cc1n(c2=O)Cc2c-1nc1cc(F)c(C)cc1c2[C@H](C)O` [Example 12c], the IC50 amounted to 6.6 nM.

In the case of `CC[C@@]1(O)C(=O)OCc2c1cc1n(c2=O)Cc2c-1nc1cc(F)c(C)cc1c2[C@@H](C)NC(=O)CO` [Example 13b], the IC50 turned out to be 130 nM.

With `CC[C@@]1(O)C(=O)OCc2c1cc1n(c2=O)Cc2c-1nc1cc(F)c(C)cc1c2[C@H](C)N1CCNCC1` [Example 41a], the IC50 is 100 nM.

Still in this data set, the particulars now being: Homo sapiens, MDA-MB-231, read-out: MDA-MB-231 Proliferation inhibition IC50.
In the case of `CC[C@@]1(O)C(=O)OCc2c1cc1n(c2=O)Cc2c-1nc1cc(F)c(C)cc1c2[C@@H](C)N` [Example 1], the IC50 came out at 8.2 nM.

On to `CC[C@@]1(O)C(=O)OCc2c1cc1n(c2=O)Cc2c-1nc1cc(F)c(C)cc1c2CO` [Example 12b], for which the IC50 amounted to 20.2 nM.

The subject of the next data set is Caco-2 cells (human colorectal adenocarcinoma cells).
Test: not given
Conditions: not given
On to `CC[C@@]1(O)C(=O)OCc2c1cc1n(c2=O)Cc2c-1nc1cc(F)c(C)cc1c2[C@@H](C)N` [Example 1], for which the “Permeability compared with reference compounds (in words)” value is “obvious advantages over SN38 and exatecan”.

In the case of `CC[C@@]1(O)C(=O)OCc2c1cc1n(c2=O)Cc2c-1nc1cc(F)c(C)cc1c2[C@H](C)O` [Example 12c], the “Permeability compared with reference compounds (in words)” value is “obvious advantages over SN38 and exatecan”.

A further data set relates to MCF-7 cells (human breast cancer cells). The data set can be described thus: MCF-7 cell proliferation inhibitory assay (CellTiter-Glo). In kind it is cell-based. The note with it: Homo sapiens, MCF7, 72 h, read-out: Proliferation inhibition IC50. The method, then: • 1). […] Resuspend an appropriate amount of cell suspension to 4000 cells/100 μL according to the count, mixed well and then put the corresponding number of cells into a 96-well plate by pipette. • 3). Each hole of the edge was sealed with 100 μL DPBS and put into an incubator for culture. • 4). Day 1 drug addition: Prepare the storage solution of the compound to be tested 1 hour in advance. 24 h after plating, the culture medium was gradiently diluted to a concentration twice the final concentration of each group. Take out the plated cells from the incubator and add 100 μL of the corresponding 2-fold concentration medium to each well by pipette.
Day 1 detected: Take out the plate to be tested and an appropriate amount of CTG in advance and rewarm it at room temperature in the dark. 50 μL of CTG was added to each well at 24 h. Shake with the oscillator for 5 minutes, and after balancing in the dark for 5 minutes, detect the luminescence value with a microplate reader; The mixture was shaken for 5 min, and after equilibration in the dark for 5 min, the luminescence value was detected with ELISA. • 6). Day 4 detection: Take an appropriate amount of CTG 1 h in advance and rewarm it at room temperature in the dark. At the same time, take out the plate to be tested from the incubator and leave it to equilibrate at room temperature for 30 minutes; 72 h after adding the drug, 100 μL of culture medium was sucked out with pipette carefully from each cell well, and 50 μL of CTG was added. The mixture was shaken for 5 min, and after equilibration in the dark for 5 min, the luminescence value was detected with ELISA analyzer. • 7). Data analysis and processed.
Collect data and convert it into survival rate: Inhibition rate (%)=(100−(OD value of compound-OD value on the first day)/(OD value of control well-OD value on the first day))×100%
as §2
On to `CC[C@@]1(O)C(=O)OCc2c1cc1n(c2=O)Cc2c-1nc1cc(F)c(C)c3c1c2[C@@H](N)CC3` [Compound B, Exatecan, reference compound], for which the IC50 was 5.5 nM.

`CC[C@@]1(O)C(=O)OCc2c1cc1n(c2=O)Cc2c-1nc1cc(F)c(C)c3c1c2[C@@H](NC(=O)CO)CC3` [Dxd, reference compound]: the IC50 is 20.3 nM.

Regarding `CC[C@@]1(O)C(=O)OCc2c1cc1n(c2=O)Cc2c-1nc1cc(F)c(C)cc1c2[C@@H](C)N` [Example 1], the IC50 turned out to be 5.2 nM.

`CC[C@@]1(O)C(=O)OCc2c1cc1n(c2=O)Cc2c-1nc1cc(F)c(C)cc1c2CO` [Example 12b]: the IC50 stood at 16.5 nM.

On to `CC[C@@]1(O)C(=O)OCc2c1cc1n(c2=O)Cc2c-1nc1cc(F)c(C)cc1c2[C@H](C)O` [Example 12c], for which the IC50 came to 3.5 nM.

Consider `CC[C@@]1(O)C(=O)OCc2c1cc1n(c2=O)Cc2c-1nc1cc(F)c(C)cc1c2[C@H](C)N1CCNCC1` [Example 41a], for which the IC50 worked out at 28.6 nM.

The data set is the same for the next values; noted with them: Homo sapiens, MCF7, read-out: MCF-7 Proliferation inhibition IC50.
Take `CC[C@@]1(O)C(=O)OCc2c1cc1n(c2=O)Cc2c-1nc1cc(F)c(C)cc1c2[C@@H](C)N` [Example 1]: the IC50 came to 5.2 nM.

Consider `CC[C@@]1(O)C(=O)OCc2c1cc1n(c2=O)Cc2c-1nc1cc(F)c(C)cc1c2CO` [Example 12b], for which the IC50 was found to be 16.5 nM.

The data set is the same for the next values; noted with them: Homo sapiens, MCF7; MCF-7 cells, 72 h after adding the drug, Table 1; read-out: Proliferation inhibition IC50.
As for `CC[C@@]1(O)C(=O)OCc2c1cc1n(c2=O)Cc2c-1nc1cc(F)c(C)cc1c2[C@@H](C)NC(=O)CO` [Example 13b], the IC50 was found to be 25.6 nM.

Test system in a further data set: not listed separately
The data set can be described thus: in vitro. The note with it: human, Caco-2.
Method: as §3
`CC[C@@]1(O)C(=O)OCc2c1cc1n(c2=O)Cc2c-1nc1cc(F)c(C)cc1c2[C@@H](C)N` [Example 1]: the Papp A→B at 180 min, 100 μg/mL is 100 ×10⁻⁶ cm/s.

On to `CC[C@@]1(O)C(=O)OCc2c1cc1n(c2=O)Cc2c-1nc1cc(F)c(C)cc1c2CO` [Example 12b], for which the Papp A→B at 180 min, 100 μg/mL is 49.3 ×10⁻⁶ cm/s.

The compound `CC[C@@]1(O)C(=O)OCc2c1cc1n(c2=O)Cc2c-1nc1cc(F)c(C)cc1c2[C@H](C)O` [Example 12c] returned a Papp A→B at 180 min, 100 μg/mL of 96 ×10⁻⁶ cm/s.

In turn, `CC[C@@]1(O)C(=O)OCc2c1cc1n(c2=O)Cc2c-1nc1cc(F)c(C)cc1c2[C@@H](C)NC(=O)CO` [Example 13b] came in with a Papp A→B at 180 min, 100 μg/mL of 56.1 ×10⁻⁶ cm/s.

The values above are taken from patent US20240376120A1, “CAMPTOTHECIN COMPOUND, PREPARATION METHOD THEREFOR AND USE THEREOF” (priority 2021, published 2024).
